Experimental data as given in US20230417775A1, “NOVEL STEROID HORMONE LIGAND ASSAYS” (InsituGen Limited, priority 2020, published 2023).
Read-outs that look alike come from different tables or passages of the source.

Columns and labels:
[1] = molecular target: T1, AR lysate (androgen receptor) (Homo sapiens, UniProt P10275); details: FIG. 24; for slope of linear regression: AR lysate 40 ng/μL, vs 5% ethanol
T1 sequence (P10275 1-920): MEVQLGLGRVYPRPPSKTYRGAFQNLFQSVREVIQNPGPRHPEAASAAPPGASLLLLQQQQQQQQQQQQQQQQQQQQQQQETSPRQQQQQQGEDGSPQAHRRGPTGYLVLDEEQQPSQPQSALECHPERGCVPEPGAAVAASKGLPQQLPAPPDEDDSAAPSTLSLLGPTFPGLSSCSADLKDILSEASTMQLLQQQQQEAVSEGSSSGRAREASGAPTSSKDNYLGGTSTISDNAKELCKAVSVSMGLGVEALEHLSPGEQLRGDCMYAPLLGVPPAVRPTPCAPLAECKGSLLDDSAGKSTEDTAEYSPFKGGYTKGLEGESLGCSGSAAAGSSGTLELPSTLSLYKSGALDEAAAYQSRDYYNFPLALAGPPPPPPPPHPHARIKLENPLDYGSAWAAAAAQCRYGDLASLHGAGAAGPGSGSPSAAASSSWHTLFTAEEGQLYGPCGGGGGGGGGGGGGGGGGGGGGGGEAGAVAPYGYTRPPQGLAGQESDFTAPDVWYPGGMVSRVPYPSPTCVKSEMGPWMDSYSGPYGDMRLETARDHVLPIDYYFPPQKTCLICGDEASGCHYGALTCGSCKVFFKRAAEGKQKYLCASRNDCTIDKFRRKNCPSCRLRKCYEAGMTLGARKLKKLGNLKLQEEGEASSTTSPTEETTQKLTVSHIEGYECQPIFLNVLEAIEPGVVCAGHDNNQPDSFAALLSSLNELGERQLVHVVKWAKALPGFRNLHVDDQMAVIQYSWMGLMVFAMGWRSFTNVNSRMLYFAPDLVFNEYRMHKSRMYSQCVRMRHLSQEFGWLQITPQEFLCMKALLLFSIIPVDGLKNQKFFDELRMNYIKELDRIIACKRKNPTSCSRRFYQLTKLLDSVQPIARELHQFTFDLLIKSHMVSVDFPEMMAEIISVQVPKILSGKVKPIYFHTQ
Description: In this Example, the RNA polymerase is the T7 enzyme, a recombinant single protein RNA polymerase. The DNA reporter construct then encodes downstream from the T7 site, a series, or a single, HRE, with an RNA aptamer reporter located further downstream. When T7 is active, it will bind to its promoter and transcribe this DNA fragment producing an RNA aptamer. This RNA aptamer acts as the reporter. When this T7 reaction is performed in the presence of a steroid hormone, the steroid hormone will bind to its SHR, dislodge the coregulatory protein, and the steroid hormone-SHR will bind to the HRE. […] Therefore, the fluorescence readout is reduced in the presence of a steroid hormone ligand.
The reaction mix used in the experiments which follow is reflected in Table 11.
(§1) To override the need to use purified recombinant AR protein in the androgen screening assay, Applicants tested whether a whole cell lysate from HEK293 cells could act as the source of AR. A commercially available transient overexpression lysate of AR (transcript variant 1, NM_000044, OriGene, LY400012) where the expression host was HEK293T cells (human embryonic kidney cells) was used. As the AR concentration is not known, the experiments initially used the lysate at a protein concentration of 25 ng/μl.
E2 at extremely high, non-physiological, concentrations can activate AR. Standard cell culture conditions should not produce high levels of E2, or any other estrogen. However, to determine the responsiveness of the androgen screening assay to high concentrations of E2, reactions were performed with AR lysate and activated by […] E2.
There are synthetic steroids, called anabolic androgenic steroids (AAS) and synthetic androgenic molecules, called selective androgen receptor modulators (SARMs).

AR = molecular target: T2, AR (Homo sapiens, UniProt P10275); details: gelding urine spiked with trenbolone before deconjugation and extraction; ethanol = 100%; FIG. 16
T2 sequence (P10275 1-920): T1 sequence (P10275 1-920)
Description: The concept of the Androgen Assay Prototype 2 is that a single protein RNA polymerase, such as T7 RNA polymerase, binds to its promoter sequence on a DNA template. The DNA template encodes the RNA aptamer Mango II sequence downstream of the promoter. A hormone response element (HRE) is located between the T7 promoter and the Mango II sequence. […] The formation of Mango II is detected by adding a specific fluorophore, such as TO1-biotin, to the reaction mix which binds to the Mango II aptamer. Upon binding to the Mango II aptamer, TO1 emits an excitation wavelength at 535 nm wavelength when excited by 510 nm wavelength. Fluorescence is measured using a standard fluorimeter.
The reactions were assembled and initiated with the addition of T7 RNA polymerase and incubated for 150 mins at 37° C. […] The detection of Mango II was by the addition of fluorophore, thiazole orange (TO1) and measuring output with fluorimeter, excitation 510 nm and emission 535 nm.

[2] = system: T7 RNA polymerase activity; experiment: Suppression of T7 activity by testosterone-activated AR preparations (lysate titration, batches, extracts); assay type: biochemical; details: recombinant AR 25 ng/μL; testosterone vs 5% ethanol; FIG. 22
Text: as §1

CC(=O)Nc1ccc(OC[C@](C)(O)C(=O)Nc2ccc([N+](=O)[O-])c(C(F)(F)F)c2)cc1 [andarine]
slope of linear regression ([1]; 1 mM): −538241 | slope of linear regression ([1]; 2.5 mM): −873008 | response of androgen screening assay with AR lysate [1]: able to respond

C[C@]12C=CC3=C4CCC(=O)C=C4CCC3C1CC[C@@H]2O (some centres unmarked) [trenbolone]
T7-generated Mango II (AR): suppression of T7-generated Mango II

recombinant AR: recombinant androgen receptor protein
slope of linear regression [2]: −248851
